Experimental data published in patent US20140234373A1, “Methods of Promoting Immune Tolerance” (Georgia Regents University, priority 2011, published 2014).

Key:
[1] = test system: OVA-specific OT-2 T cells; experiment: In vivo suppression assay, OT-2 T cell responses to OVA immunization; details: oral 1MT with pDNA/PEI, OVA-immunized B6 mice
Description: CFSE-labeled OVA-specific T cells from OT-1 or OT-2 donor mice were injected (i/v) into recipient B6 mice at least 1 day before immunization. CFSE labeling was performed by incubating MACS-enriched splenic CD8+ (OT-1) or CD4+ (OT-2) T cells at ˜10×10^6 cells/ml in PBS with 2 μM CFSE at 37° C. for 15 mins Cells were washed in PBS and injected into recipients (i/v). Mice were then immunized with […] erythrocyte-free spleen cells from Act-mOVA transgenic mice (s/c), and treated with pDNA/PEI nanoparticles and oral 1MT as indicated in FIG. 3.
Cells were stained with the following antibodies; anti-CD4 (clone RM4-5), anti-Thy1.1 (clone OX-7), anti-NK1.1 (clone PK136), anti-CD49b (clone DX5), anti-IFNγ (clone XMG1.2) from Pharmingen-BD-Biosciences (San Jose, Calif.), and analyzed using a LSR2 flow cytometer (Becton-Dickinson). CFSE was purchased from Invitrogen. For detecting intracellular IFNγ, cells were surface stained with anti-NK1.1 and anti-DX5, fixed with cytofix/cytoperm, washed with Perm/Wash solution (BD Bioscience) and stained with anti-IFNγ. Some cells were incubated in RPMI with 1 μM of brefeldin (BD Bioscience) for 3 hrs. with no further stimulations to accumulate cytokine before staining. For detecting IFNγ in OT-2 T cells, dLN cells were stimulated with PMA/ionomycin for 2 hrs. with brefeldin. […]

[2] = test system: OT-1 T cells; experiment: DC suppression assay (splenic DCs from treated mice with OT-1 T cells); format: in vivo; details: DCs from pDNA/PEI-treated B6 mice, 1MT 100 μM
Description: MACS-enriched splenic DCs (CD11c+) and Tregs (CD4+CD25+) were isolated according to manufacturer's instructions, except that cells were incubated with beads at RT (Magnetic Cell Separation Technology (MACS)—Miltenyi Biotec Inc., Auburn, Calif.). T cell stimulatory activity of DCs was assessed by culturing graded numbers of DCs (X-Y) with responder (MACS-enriched) CD8+ T cells from OT-1 (+SIINFEKL peptide) (SEQ ID NO:1) TCR-Tg mice+/−1MT as described (11). Suppressor activity of splenic Tregs was assessed by culturing graded numbers of Tregs with responder A1 (H-Y-specific) T cells, APCs (female CBA) and male (H-Y) peptide; a cocktail of anti-PD-1, anti-PD-L1, and anti-PD-L2 mAbs was added to some cultures to block PD-1-PD-L interactions as described (Baban, et al., J Immunol, 183:2475-2483 (2009), Sharma, et al., J Clin Invest 117:2570-2582 (2007)).
Assays to detect IDO-dependent T cell regulatory phenotypes in splenic DCs were performed as previously described. Briefly, MACS enriched (CD11c^+) spleen cells were cultured for 72 hours with MACS-enriched CD8α^+ T cells from OT-1 TCR transgenic mice and OVA257-264 peptide (SIINFEKL (SEQ ID NO:1)), 100 nM). Proliferation was assessed by adding 1 μCi methyl-[^3H]-thymidine for the final 6 hours and quantified using a BetaPlate counter (Wallac). […] Proliferation was assessed as described above. […]

[3] = test system: B6 mice (mBSA-induced arthritis); experiment: mBSA-induced arthritis model; format: in vivo; details: local joint inflammation
Description: B6 mice were sensitized with methylated BSA (mBSA, s/c, […] in CFA (day 0). Booster injections of mBSA in IFA were given on days 7 and 14, and arthritis was induced on day 21 by intra-articular injection of mBSA (10 μg in PBS, challenge).
Arthritis severity was evaluated by measuring joint swelling, neutrophil infiltration, and histological analysis as described (Lemos, et al., Proc Natl Acad Sci USA, 106:5954-5959 (2009)). In brief, joint swelling was assessed using a vernier caliper, and was expressed as the increase in diameter (mm) relative to non-inflamed joints in each mouse at experimental starting points. Neutrophils were counted after harvesting cells from articular cavities 24 hours after mBSA challenge. Results were presented as neutrophil numbers per cavity (mean±SEM). Arthritis was analyzed histologically 28 days after initial immunization (experimental endpoints). Knee joints were dissected and fixed in 10% buffered formalin for 3 days. […] Sections were examined by two independent observers and graded blindly using a semi-quantitative score from 0 to 3 (0, no; 1, mild; 2, moderate; 3, severe alterations) for the extent of (a) synovial lining layer hyperplasia and (b) infiltration of leukocytes into synovial membrane/joint space (as measures of joint inflammation); and (c) pannus formation and necrosis/erosion of cartilage (as a measure of joint destruction). […]

[4] = test system: NODf mice; experiment: Type I diabetes onset in NOD female mice; format: in vivo; details: oral 1MT, no other treatment
Source text: IDO slows T1D progression in a subset of NODf mice (FIG. 10 (-▴-)), as IDO inhibitor accelerated disease onset in at least 50% of NOD female mice.

Cn1cc(C[C@@H](N)C(=O)O)c2ccccc21 [1MT, 1-methyl-[D]-tryptophan]
effect of IDO inhibitor on suppressive effects of DNP treatment [1]: abrogated | effect of adding 1MT on T cell responses [2]: restored robust T cell responses | effect of oral 1MT on ameliorative effects of pAT/PEI therapy [3]: reversed | mice that developed diabetes faster than control [4]: 50% | mice that developed diabetes faster than control ([4]; listed as IDO inhibitor): at least 50%
